# Source: paper PMC5478271, “Chemical structure-guided design of dynapyrazoles, cell-permeable dynein inhibitors with a unique mode of action” (eLife, 2017)
# Target: T1, His-dynein 1 (Homo sapiens, UniProt Q14204)
# T1 construct: (wild-type, K1912A, K2601A, AA 1320–4646, uniprot: Q14204); made in house; host or cells: Sf9 insect cells (baculovirus)
# Test: Microtubule-stimulated ATPase activity of His-dynein 1
# Format: biochemical
# Conditions: 1 mM MgATP
# Procedure: ATPase assays using recombinant Dynein 1 (wild-type and mutants) were performed in a buffer containing 25 mM PIPES pH7.0, 30 mM KCl, 1 mM EGTA, 5 mM MgCl2, 0.01% triton X-100, 1 mM DTT, and 20–30 µM taxol (if microtubules were present). For typical conditions, enzyme was incubated with varying concentrations of inhibitor in buffer containing 2% DMSO for 10 min in a volume of 10 μL. When microtubules were present, they were polymerized by stepwise addition of taxol and high concentrations of DMSO (30% final during polymerization reactions), and re-suspended following centrifugation in ATPase buffer to a concentration up to threefold above the final concentration used in the reaction (bovine brain tubulin, no fluoresecent label). For microtubule-stimulated reactions in dose-response format, reactions were assembled by 1:1:1 mixture of 3x enzyme stock, 3x compound stock (in buffer with 6% DMSO), and 3x microtubule stock to each well. For microtubule-stimulated ATPase assays at tubulin concentrations > 2.5 µM, enzyme stock was supplemented with compound stock in pure DMSO (resulting in an intermediate DMSO concentration of 6%), and then the microtubule stock was added. Final enzyme concentrations were 30–100 nM for GFP-dynein 1, wild-type 6x-His-dynein 1, and K2601A 6x-His-dynein 1 and up to 500 nM for K1912A 6x-His-dynein 1. The final DMSO concentration was 2% in all ATPase assays performed.
# Assembled reaction mixtures (including enzyme, compound, and microtubules, if present) were incubated for 10 min before addition of ATP. Each ATPase reaction was initiated by addition of 2 μL of a 6x ATP stock containing trace γ-^32P ATP (3 µCi/mmol, 3 µCi/mL, Perkin Elmer) and allowed to proceed for a time predetermined to lie within the linear range of the assay (20–30 min). For typical conditions, ATP was used at a final concentration of 1 mM. Reactions were quenched by the addition of 12 µL 100 mM EDTA, and 2 μL of each quenched reaction was spotted onto PEI-cellulose TLC plates (Millipore). Plates were developed in a glass chamber with a freshly prepared solution of 150 mM formic acid and 150 mM LiCl, dried, exposed to a storage phosphor tray (GE Healthsciences), and scanned on a Typhoon imaging system (GE Healthsciences). The fraction of γ-phosphate hydrolyzed in each condition was quantified using FIJI.
# Curve fitting: Where dose-response experiments are fit and IC50values given, these are obtained as follows: Individual experiments are treated as separate. […]
# T1 sequence (Q14204 1320-4646): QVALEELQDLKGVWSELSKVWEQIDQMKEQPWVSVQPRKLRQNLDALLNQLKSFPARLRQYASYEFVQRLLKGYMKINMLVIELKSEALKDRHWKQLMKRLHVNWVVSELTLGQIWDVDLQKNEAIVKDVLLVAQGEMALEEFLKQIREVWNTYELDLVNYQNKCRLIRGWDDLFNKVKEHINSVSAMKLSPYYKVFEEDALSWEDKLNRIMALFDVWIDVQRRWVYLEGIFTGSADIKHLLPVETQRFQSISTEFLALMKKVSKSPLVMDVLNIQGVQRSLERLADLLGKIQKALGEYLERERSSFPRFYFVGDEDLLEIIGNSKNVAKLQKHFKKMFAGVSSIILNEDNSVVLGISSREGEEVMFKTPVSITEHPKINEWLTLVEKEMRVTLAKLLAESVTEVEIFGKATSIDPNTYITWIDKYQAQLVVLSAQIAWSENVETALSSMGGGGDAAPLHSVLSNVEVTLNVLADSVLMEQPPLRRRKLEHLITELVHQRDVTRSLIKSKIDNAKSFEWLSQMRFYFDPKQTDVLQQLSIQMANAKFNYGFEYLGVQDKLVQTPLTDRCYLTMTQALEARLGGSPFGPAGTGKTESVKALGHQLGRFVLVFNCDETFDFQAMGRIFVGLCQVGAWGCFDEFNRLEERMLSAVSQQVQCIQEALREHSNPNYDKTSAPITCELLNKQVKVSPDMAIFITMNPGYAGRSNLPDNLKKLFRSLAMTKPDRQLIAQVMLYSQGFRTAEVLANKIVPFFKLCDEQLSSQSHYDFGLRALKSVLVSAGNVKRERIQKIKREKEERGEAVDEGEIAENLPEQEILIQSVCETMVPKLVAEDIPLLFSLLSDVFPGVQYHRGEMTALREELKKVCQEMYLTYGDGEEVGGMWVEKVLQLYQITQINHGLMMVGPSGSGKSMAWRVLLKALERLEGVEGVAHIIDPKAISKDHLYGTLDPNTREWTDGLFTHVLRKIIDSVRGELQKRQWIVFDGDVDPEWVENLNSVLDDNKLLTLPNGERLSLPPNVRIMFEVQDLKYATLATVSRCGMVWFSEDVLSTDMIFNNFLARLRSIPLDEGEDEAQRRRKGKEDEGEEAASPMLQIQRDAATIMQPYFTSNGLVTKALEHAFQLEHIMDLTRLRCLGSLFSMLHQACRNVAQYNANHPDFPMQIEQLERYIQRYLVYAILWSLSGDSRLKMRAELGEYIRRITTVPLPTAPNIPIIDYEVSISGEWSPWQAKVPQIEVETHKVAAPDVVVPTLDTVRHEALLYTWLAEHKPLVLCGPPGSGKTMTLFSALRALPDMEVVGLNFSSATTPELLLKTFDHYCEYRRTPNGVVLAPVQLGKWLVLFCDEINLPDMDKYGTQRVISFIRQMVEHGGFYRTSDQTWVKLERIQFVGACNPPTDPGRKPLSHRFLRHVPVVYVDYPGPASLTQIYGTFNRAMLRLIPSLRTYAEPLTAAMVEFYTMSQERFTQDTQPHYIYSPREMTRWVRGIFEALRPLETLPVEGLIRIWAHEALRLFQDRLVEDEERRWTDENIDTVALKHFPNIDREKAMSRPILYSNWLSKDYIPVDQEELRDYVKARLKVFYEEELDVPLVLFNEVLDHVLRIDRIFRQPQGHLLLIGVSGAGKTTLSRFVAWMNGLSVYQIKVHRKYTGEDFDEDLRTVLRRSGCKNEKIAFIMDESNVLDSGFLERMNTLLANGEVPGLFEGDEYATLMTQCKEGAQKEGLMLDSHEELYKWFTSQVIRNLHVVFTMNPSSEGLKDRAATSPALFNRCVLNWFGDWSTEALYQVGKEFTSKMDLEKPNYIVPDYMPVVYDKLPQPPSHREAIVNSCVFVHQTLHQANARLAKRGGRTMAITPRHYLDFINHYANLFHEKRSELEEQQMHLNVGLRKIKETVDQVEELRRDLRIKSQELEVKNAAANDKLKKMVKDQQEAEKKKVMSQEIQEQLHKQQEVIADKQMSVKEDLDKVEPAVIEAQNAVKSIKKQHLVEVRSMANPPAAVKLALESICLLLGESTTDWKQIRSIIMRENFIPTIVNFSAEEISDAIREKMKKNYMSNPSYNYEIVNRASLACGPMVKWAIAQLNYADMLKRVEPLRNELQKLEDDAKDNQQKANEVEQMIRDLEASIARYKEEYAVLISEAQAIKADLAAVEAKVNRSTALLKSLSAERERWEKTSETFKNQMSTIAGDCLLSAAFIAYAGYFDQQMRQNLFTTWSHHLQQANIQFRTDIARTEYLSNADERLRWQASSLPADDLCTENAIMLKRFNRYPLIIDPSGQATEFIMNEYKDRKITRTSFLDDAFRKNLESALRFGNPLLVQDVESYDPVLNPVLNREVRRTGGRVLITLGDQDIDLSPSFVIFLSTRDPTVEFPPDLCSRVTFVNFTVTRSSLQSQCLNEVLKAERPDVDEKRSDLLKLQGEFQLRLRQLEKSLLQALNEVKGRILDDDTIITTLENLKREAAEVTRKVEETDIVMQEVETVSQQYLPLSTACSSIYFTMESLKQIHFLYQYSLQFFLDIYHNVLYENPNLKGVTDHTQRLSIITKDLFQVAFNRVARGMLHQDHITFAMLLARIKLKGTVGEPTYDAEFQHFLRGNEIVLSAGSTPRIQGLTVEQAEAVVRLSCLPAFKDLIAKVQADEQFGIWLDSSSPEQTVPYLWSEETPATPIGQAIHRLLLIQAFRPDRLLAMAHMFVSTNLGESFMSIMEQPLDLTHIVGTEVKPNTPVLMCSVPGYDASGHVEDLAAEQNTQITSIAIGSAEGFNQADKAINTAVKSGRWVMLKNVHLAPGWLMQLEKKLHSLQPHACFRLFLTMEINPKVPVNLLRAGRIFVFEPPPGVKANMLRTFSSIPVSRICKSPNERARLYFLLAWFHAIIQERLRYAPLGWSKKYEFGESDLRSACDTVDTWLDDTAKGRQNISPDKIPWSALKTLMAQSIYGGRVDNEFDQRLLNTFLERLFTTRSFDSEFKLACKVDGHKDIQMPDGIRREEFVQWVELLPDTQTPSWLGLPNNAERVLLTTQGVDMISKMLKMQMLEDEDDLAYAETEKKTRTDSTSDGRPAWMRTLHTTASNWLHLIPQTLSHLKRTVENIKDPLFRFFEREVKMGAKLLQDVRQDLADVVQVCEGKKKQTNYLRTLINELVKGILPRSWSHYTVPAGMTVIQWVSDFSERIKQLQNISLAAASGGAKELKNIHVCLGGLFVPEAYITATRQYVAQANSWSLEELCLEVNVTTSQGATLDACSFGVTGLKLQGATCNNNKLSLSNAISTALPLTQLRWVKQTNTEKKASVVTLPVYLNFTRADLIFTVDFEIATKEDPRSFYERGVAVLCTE
SMILES,Plateau of microtubule-stimulated ATPase activity at increasing compound concentrations (2.5 µM microtubules),"IC50 (2.5 µM microtubules, fit to non-zero plateau, read-out: IC50, inhibition of microtubule-stimulated His-dynein 1 ATPase activity)","Residual rate of microtubule-stimulated ATPase activity (30 µM compound, 8 or 15 µM microtubules)"
"N#Cc1c(C2(c3ccc(Cl)cc3)CC2)nn2c1[nH]c(=O)c1cc(I)ccc12 [Compound 8, 2-[1-(4-chlorophenyl)cyclopropyl]-7-iodo-5-oxo-4H-pyrazolo[1,5-a]quinazoline-3-carbonitrile]",~ 0.5 s^−1,6.2 ± 1.6 µM,~ 0.5 s^−1
"N#C/C(C(=O)c1ccc(Cl)cc1Cl)=C1\NC(=O)c2ccc(Cl)cc2N1 [ciliobrevin D, reference compound]",did not reveal a plateau,,
